Measurements from patent US20020054861A1, “Method of preparing particularly skin-compatible cosmetic or dematological cleansing preparations” (priority 1999, published 2002).

System: skin (inner sides of the forearms)
Experiment: Adsorption of lauryl ether sulfate on the skin in a simulated washing operation (forearm, desorption with Triton X-100, ion-pair chromatography)
Format: in vivo, human
Method: The method which we have developed for determining the adsorption of lauryl ether sulfate on the skin simulates a washing operation as occurs, for example, during daily showering: Firstly, the inner sides of the forearms are divided into a number of test areas using insulating tape. The area to be treated is then wetted with approximately 50 ml of mains wafer (T=38±1° C.). The lauryl ether sulfate is then applied. Throughout the application period of 45 s, the test subject distributes the lauryl ether sulfate over the area using 2 fingers in uniform circular movements. At the end of the application period, the test area is rinsed with approximately 950 ml of mains water (T=38±1° C.) and carefully patted dry using a clean cellulose cloth. For the desorption, a plastic ring with an internal diameter of 25 mm is pressed firmly onto the inner side of the test subject's forearm. 1000 μl of a 1% Triton X-100 solution are then introduced into the ring. The tip of a round Teflon-coated spatula is then used to scrape the skin uniformly for 1 min. This leads to suspension of corneocytes. To work up the samples for analysis, the samples are centrifuged and 800 μl of the supernatant are drawn off. The supernatant is analyzed with regard to its lauryl ether sulfate content using ion-pair chromatography. The effectiveness of the desorption method described is 79%, i.e. 79% of the amount of lauryl ether sulfate actually present on the skin are included.

[1] = cosurfactant concentration 3%, added to a lauryl ether sulfate solution

Compound	Effect on the adsorbed amount of lauryl ether sulfate (reduction) [1]	other results
sodium cocoamphoacetate	Reduction by 27%	
cocamidopropylbetaine	Reduction by 31%	
CCCCCCCCCCCC(=O)O [Lauric acid]		Effect on the adsorbed amount of lauryl ether sulfate (reduction) (cosurfactant concentration 1%, pH9, added to a lauryl ether sulfate solution): Reduction by 15%
disodium laureth sulfosuccinate	Reduction by 28%	
CCCCCCCCCCO[C@@H]1O[C@H](CO)[C@@H](O)[C@H](O)[C@H]1O [Decyl glucoside]		Effect on the adsorbed amount of lauryl ether sulfate (reduction) (cosurfactant concentration 5%, added to a lauryl ether sulfate solution): Reduction by 29%
